In article PMC12241633, “Irinotecan alleviates chemoresistance to anthracyclines through the inhibition of AARS1-mediated BLM lactylation and homologous recombination repair” (Signal Transduction and Targeted Therapy, 2025):

Columns and labels:
Assay in all cases: SPR (Biacore T200), multicycle kinetics, global […] Langmuir fit
Format in all cases: binding
[1] = molecular target: T1, BLM (Homo sapiens, UniProt P54132, K31R)
T1 construct: recombinant, pET28a-sumo in E. coli BL21(DE3); amine-coupled to CM5 chip
T1 sequence (P54132 whole entry K31R): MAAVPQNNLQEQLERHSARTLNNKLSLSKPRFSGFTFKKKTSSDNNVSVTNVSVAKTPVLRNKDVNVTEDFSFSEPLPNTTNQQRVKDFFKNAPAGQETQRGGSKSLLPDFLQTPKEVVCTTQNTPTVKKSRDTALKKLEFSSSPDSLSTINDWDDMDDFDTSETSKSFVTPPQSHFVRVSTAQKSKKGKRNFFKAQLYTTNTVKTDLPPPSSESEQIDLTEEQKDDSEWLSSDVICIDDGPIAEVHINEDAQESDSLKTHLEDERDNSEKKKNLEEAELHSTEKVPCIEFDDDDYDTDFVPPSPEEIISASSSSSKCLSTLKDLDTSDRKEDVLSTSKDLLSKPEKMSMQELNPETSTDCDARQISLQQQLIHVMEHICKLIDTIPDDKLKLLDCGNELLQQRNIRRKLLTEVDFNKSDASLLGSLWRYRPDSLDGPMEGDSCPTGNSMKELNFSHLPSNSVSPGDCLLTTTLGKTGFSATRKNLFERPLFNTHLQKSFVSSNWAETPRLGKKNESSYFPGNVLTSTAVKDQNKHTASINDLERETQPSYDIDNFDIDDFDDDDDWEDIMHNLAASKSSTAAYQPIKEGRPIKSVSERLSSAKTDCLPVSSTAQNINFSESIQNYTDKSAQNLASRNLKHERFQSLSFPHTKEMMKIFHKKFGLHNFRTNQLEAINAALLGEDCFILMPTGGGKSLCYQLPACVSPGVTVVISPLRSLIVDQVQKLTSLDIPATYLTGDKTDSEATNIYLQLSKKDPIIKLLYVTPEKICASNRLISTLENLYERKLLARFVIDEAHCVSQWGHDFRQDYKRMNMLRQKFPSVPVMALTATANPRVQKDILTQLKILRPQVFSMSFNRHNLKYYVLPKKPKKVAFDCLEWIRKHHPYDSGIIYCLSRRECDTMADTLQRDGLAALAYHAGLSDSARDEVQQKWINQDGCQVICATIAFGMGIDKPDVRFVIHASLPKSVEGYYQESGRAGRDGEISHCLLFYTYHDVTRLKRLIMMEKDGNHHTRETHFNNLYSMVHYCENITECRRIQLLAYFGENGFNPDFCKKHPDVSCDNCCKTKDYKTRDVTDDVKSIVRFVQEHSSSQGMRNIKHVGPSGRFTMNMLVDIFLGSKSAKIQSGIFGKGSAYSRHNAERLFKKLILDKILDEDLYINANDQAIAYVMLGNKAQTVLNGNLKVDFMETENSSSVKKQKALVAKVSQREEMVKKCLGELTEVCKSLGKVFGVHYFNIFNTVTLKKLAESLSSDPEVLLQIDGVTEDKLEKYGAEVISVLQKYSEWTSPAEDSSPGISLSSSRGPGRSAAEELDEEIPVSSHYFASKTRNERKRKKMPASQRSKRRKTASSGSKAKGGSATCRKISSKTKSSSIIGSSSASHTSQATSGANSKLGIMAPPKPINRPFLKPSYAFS

[2] = molecular target: T2, BLM (Homo sapiens, UniProt P54132, K38R)
T2 construct: recombinant, pET28a-sumo in E. coli BL21(DE3); amine-coupled to CM5 chip
T2 sequence (P54132 whole entry K38R): as the sequence (P54132 whole entry K31R) above, with R31K, K38R counted along it

[3] = molecular target: T3, BLM (Homo sapiens, UniProt P54132)
T3 construct: recombinant, pET28a-sumo in E. coli BL21(DE3); amine-coupled to CM5 chip
T3 sequence (P54132 whole entry): as the sequence (P54132 whole entry K31R) above, with R31K counted along it

CCc1c2c(nc3ccc(OC(=O)N4CCC(N5CCCCC5)CC4)cc13)-c1cc3c(c(=O)n1C2)COC(=O)[C@]3(O)CC [irinotecan]
Kd [1]: 776 nM | Kd [2]: 911 nM | Kd [3]: 251 nM
